The test system of data set [1] is Mythimna separate (Walker). Nature of the data set: Insecticidal activity against Mythimna separate (Walker). It counts as in vivo. As to conditions: for pest or weed control at 100 µg/mL: Mythimna, read-out: insecticidal activity, Mythimna separate (Walker).
Data set [2] has as its system Cercospora arachidicola. Nature of the data set: Fungicidal activity, fungicide growth rate method, CA. Type of data set: cell-based. As to conditions: 50 μg/mL; for inhibition at 50 µg/mL: Mycosphaerella arachidis, read-out: fungicidal activity (growth inhibition rate), CA.
Data set [3] has as its system Ostrinia furnacalis. Nature of the data set: Insecticidal activity against Ostrinia furnacalis. It counts as in vivo. As to conditions: for pest or weed control at 100 µg/mL: Ostrinia furnacalis, read-out: insecticidal activity, Ostrinia furnacalis.
Data set [4] deals with wheat Gibberella zeae. As to the kind of experiment: microbe, parasite or virus in culture. It counts as cell-based. As to conditions: for inhibition at 50 µg/mL: Fusarium graminearum, read-out: fungicidal activity (growth inhibition rate), GZ, 50 μg/mL.
Data set [5] deals with Sclerotinia sclerotiorum. As to the kind of experiment: Fungicidal activity, fungicide growth rate method, SS. It counts as cell-based. To be noted: 50 μg/mL; for inhibition at 50 µg/mL: Sclerotinia sclerotiorum.
The test system of data set [6] is Helicoverpa armigera (Hübner). Nature of the data set: Insecticidal activity against Helicoverpa armigera (Hübner). Type of data set: in vivo. To be noted: for pest or weed control at 100 µg/mL: Helicoverpa armigera, read-out: insecticidal activity, Helicoverpa armigera (Hübner).
In data set [7] the test system is Apis mellifera ligustica Spin. To be noted: for Death number after 24 h / Death number after 48 h: per replicate of 10 bees.
Data set [8] concerns Tobacco Mosaic Virus. As to the kind of experiment: Anti-TMV inactivation activity on tobacco plants. It counts as in vivo. Also noted: concentration or dose not given beside the values. As to conditions: compound mixed with TMV solution 30 minutes, lesions checked three days later.
The test system of data set [9] is Caenorhabditis elegans. As to the kind of experiment: Insecticidal activity against Caenorhabditis elegans. As to conditions: Caenorhabditis elegans, read-out: insecticidal activity, Caenorhabditis elegans. It counts as in vivo.
Data set [10] relates to Pellicularia sasakii. Nature of the data set: Fungicidal activity, fungicide growth rate method, PS. It counts as cell-based. To be noted: 50 μg/mL; for inhibition at 50 µg/mL: read-out: fungicidal activity (growth inhibition rate), PS.
The test system of data set [11] is Rhizoctonia cerealis. As to the kind of experiment: Fungicidal activity, fungicide growth rate method, RC. To be noted: 50 μg/mL; for inhibition at 50 µg/mL: Ceratobasidium cereale, read-out: fungicidal activity (growth inhibition rate), RC. It counts as cell-based.
Data set [12] relates to Phytophthora infestans (Mont.) de Bary. As to the kind of experiment: microbe, parasite or virus in culture. Type of data set: cell-based. As to conditions: for inhibition at 50 µg/mL: Phytophthora infestans, read-out: fungicidal activity (growth inhibition rate), PI, 50 μg/mL.
Data set [13] concerns Physalospora piricola. As to the kind of experiment: Fungicidal activity, fungicide growth rate method, PP. Type of data set: cell-based. As to conditions: 50 μg/mL; for inhibition at 50 µg/mL: read-out: fungicidal activity (growth inhibition rate), PP.
Data set [14] has as its system Alternaria solani. As to the kind of experiment: Fungicidal activity, fungicide growth rate method, AS. As to conditions: 50 μg/mL; for inhibition at 50 µg/mL: Alternaria solani, read-out: fungicidal activity (growth inhibition rate), AS. It counts as cell-based.
Data set [15] relates to Botrytis cinerea. As to the kind of experiment: Fungicidal activity, fungicide growth rate method, BC. As to conditions: 50 μg/mL; for inhibition at 50 µg/mL: Botrytis cinerea, read-out: fungicidal activity (growth inhibition rate), BC. It counts as cell-based.

“And” between values parts separate entries of the source, which are not always exact repeats. Equal entries are not always repeated. Where two headings read alike, the source gives them in different places.

Eight molecules from patent publication US11716992B2, “5A5B6C tricyclic spirolactone derivative, preparation method therefor and use thereof” (NANKAI UNIVERSITY, priority 2017, dated 2023) can be followed below.

Take `C=CC[C@@H]1C[C@]2(OC(C)=O)C[C@@H](OC(C)=O)O[C@@]23CC=CC[C@H]13` [Zyj07-37-1]: the pest or weed control at 100 µg/mL in [1] (100 μg/mL) amounted to 20%; in data set [3] (100 μg/mL), 10%; in data set [6] (100 μg/mL) it was 15%; in data set [9] (100 μg/mL), 20%. For the same molecule, the inhibition at 50 µg/mL in data set [2] is 14%; in [4], 0%; in [5] it was more than 50%; in [10], 0%; in data set [11], 7%; in [12], 15%. Also, the inhibition at 50 µg/mL in data set [13] was more than 50%; in data set [14], 14%. The “Death rate after 48 h (%)” value in data set [7] (dosage 7.55 μg a.i./bee) and in [7] (dosage 15.3 μg a.i./bee) was 0% in each case. Besides, the “Death number after 24 h” value in [7] (dosage 7.55 μg a.i./bee) and in data set [7] (dosage 15.3 μg a.i./bee) was 0 in each case. The “Death number after 48 h” value in [7] (dosage 7.55 μg a.i./bee) and in data set [7] (dosage 15.3 μg a.i./bee) was 0 throughout. For the same molecule, the “TMV inactivation (anti-TMV activity)” value in data set [8] came to 16%.
On to `C=CC[C@@H]1C[C@]2(OC(C)=O)C[C@H](OC(C)=O)O[C@@]23CC=CC[C@H]13` [Zyj07-37-2], for which the pest or weed control at 100 µg/mL in data set [1] (100 μg/mL) worked out at 20%; in data set [3] (100 μg/mL), 0%; in data set [6] (100 μg/mL), 15%; in [9] (100 μg/mL) it was 13%. Besides, the inhibition at 50 µg/mL in data set [2] was 27%; in data set [4] it was 3%; in [5] it was more than 50%; in data set [10], 18%; in data set [11], 21%; in data set [12], 21%. Also, the inhibition at 50 µg/mL in [13] was found to be 31%; in data set [15] it was 18%; in [14], 22%. Also, the “TMV inactivation (anti-TMV activity)” value in data set [8] came to 28%.
In the case of `C=CC[C@@H]1C[C@]2(O)CCO[C@@]23CC[C@H](O)C[C@H]13` [Zyj07-33], the pest or weed control at 100 µg/mL was more than 30% in data set [1] (100 μg/mL), 10% in data set [3] (100 μg/mL), 15% in data set [6] (100 μg/mL) and 27% in data set [9] (100 μg/mL). The inhibition at 50 µg/mL worked out at 46% in data set [2]; 27% in data set [4]; 31% in data set [5]; 27% in [10]; 41% in data set [11]; 16% in data set [12]. The inhibition at 50 µg/mL is more than 50% in data set [13], more than 50% in [15] and 24% in data set [14]. In data set [8], the “TMV inactivation (anti-TMV activity)” value is recorded as 9%.
As for `C=CC[C@@H]1C[C@]2(OC(C)=O)C[C@H](OC(C)=O)O[C@@]23C[C@H]2O[C@H]2C[C@H]13` [Zyj07-65-2], the pest or weed control at 100 µg/mL in [1] (100 μg/mL) was more than 30%; in data set [3] (100 μg/mL), 5%; in [6] (100 μg/mL), 10%; in data set [9] (100 μg/mL), 17%. For the same molecule, the inhibition at 50 µg/mL was 24% in data set [2]; 0% in data set [4]; 24% in data set [5]; 0% in data set [10]; 7% in data set [11]; 25% in data set [12]. Moreover, the inhibition at 50 µg/mL in [13] was determined as 12%; in data set [15], 41%; in data set [14], 0%. The “Death rate after 48 h (%)” value is reported as 5.0% in data set [7] (dosage 9.57 μg a.i./bee) and 0% in data set [7] (dosage 10.9 μg a.i./bee). The “Death number after 24 h” value in [7] (dosage 9.57 μg a.i./bee) and in data set [7] (dosage 10.9 μg a.i./bee) was 0 in each case. Moreover, the “Death number after 48 h” value in [7] (dosage 9.57 μg a.i./bee) is 0 and 1; in data set [7] (dosage 10.9 μg a.i./bee), 0. In [8], the “TMV inactivation (anti-TMV activity)” value worked out at 29%.
For `C=CC[Si](C)(C)O[C@@]12CCO[C@@]13CC[C@H]1C[C@H]3[C@H](CC=CC[Si](C)(C)O1)C2` [Zyj07-49], the pest or weed control at 100 µg/mL in [1] was 20%; in data set [3] it was 0%; in [6], 0%; in [9], 15%. For the same molecule, the inhibition at 50 µg/mL was more than 50% in data set [5], 45% in [10], 16% in [12] and 34% in [15]. The “Death rate after 48 h (%)” value in data set [7] (dosage 6.06 μg a.i./bee) and in [7] (dosage 19.8 μg a.i./bee) was 0% in each case. Also, the “Death number after 24 h” value in data set [7] (dosage 6.06 μg a.i./bee) and in data set [7] (dosage 19.8 μg a.i./bee) was 0 each time. In addition, the “Death number after 48 h” value in [7] (dosage 6.06 μg a.i./bee) and in data set [7] (dosage 19.8 μg a.i./bee) was 0 each time. The “TMV inactivation (anti-TMV activity)” value in data set [8] is on record as 28%.
On to `C=CC[C@@H]1C[C@]2(O)C[C@H](O[C@]34CCO[C@@]35CC=CC[C@H]5[C@H](CC=C)C4)O[C@@]23CC=CC[C@H]13` [Zyj07-30-2], for which, in data set [1] (100 μg/mL), the “insecticidal activity, Mythimna separate (Walker)” value was 0%. Besides, the “fungicidal activity (growth inhibition rate), CA” value in data set [2] is listed as 73%. The “insecticidal activity, Ostrinia furnacalis” value in data set [3] (100 μg/mL) was 0%. In data set [4] (50 μg/mL), the “fungicidal activity (growth inhibition rate), GZ” value is given as 27%. In data set [5], the “fungicidal activity (growth inhibition rate), SS” value came out at 95%. Further, the “insecticidal activity, Helicoverpa armigera (Hübner)” value in data set [6] (100 μg/mL) was found to be 0%. Also, in data set [8], the “TMV inactivation (anti-TMV activity)” value is listed as 16%. Also, the “fungicidal activity (growth inhibition rate), PS” value in data set [10] is 0%. Further, the “fungicidal activity (growth inhibition rate), RC” value in data set [11] was found to be 0%. For the same molecule, in data set [12] (50 μg/mL), the “fungicidal activity (growth inhibition rate), PI” value is 14%. Besides, in [13], the “fungicidal activity (growth inhibition rate), PP” value was 48%. The “fungicidal activity (growth inhibition rate), BC” value in data set [15] came to 34%. In data set [14], the “fungicidal activity (growth inhibition rate), AS” value worked out at 0%.
`C=CC[C@@H]1C[C@]2(O)CCO[C@@]23C[C@@H]2O[C@@H]2C[C@H]13` [Zyj07-31-1]: the pest or weed control at 100 µg/mL was determined as 0% in data set [1] (100 μg/mL), 0% in [3] (100 μg/mL), 0% in data set [6] (100 μg/mL) and 18% in data set [9] (100 μg/mL). Further, the inhibition at 50 µg/mL in data set [2] amounted to 41%; in data set [4], 7%; in data set [5] it was 0%; in data set [10], 0%; in data set [11], 7%; in [12], 15%. In addition, the inhibition at 50 µg/mL in data set [13] was more than 50%; in [15] it was 36%; in data set [14] it was 14%. The “TMV inactivation (anti-TMV activity)” value in data set [8] turned out to be 11%.
Turning to `CO[C@@H]1CC(=O)[C@@]2(O)CC=CC[C@H]12` [Zyj06-111-2], the inhibition at 50 µg/mL is more than 50% in data set [2]; 47% in data set [4]; 10% in data set [5]; 0% in data set [10]; 0% in data set [11]; 31% in data set [12]. Further, the inhibition at 50 µg/mL came out at 39% in data set [15] and 14% in data set [14]. Moreover, the pest or weed control at 100 µg/mL was 40% in data set [3] (100 μg/mL), 50% in [6] (100 μg/mL) and more than 30% in [9] (100 μg/mL). Further, the “TMV inactivation (anti-TMV activity)” value in [8] was found to be 24%.
